Consider one compound from PMC4335978, “Regulation of nitrite resistance of the cytochrome cbb3 oxidase by cytochrome c ScyA in Shewanella oneidensis” (MicrobiologyOpen, 2014).

For orientation: IC50 means the midpoint of a concentration-inhibition curve.

Assay [1] addresses T1, bd oxidase (cytochrome bd) (Shewanella oneidensis, UniProt Q8EC58).
T1 construct: gene cydA; native cydABX complex in membrane preparations of S. oneidensis Δcco strain (cbb3 oxidase absent), not purified, no tag; with Cytochrome bd ubiquinol oxidase subunit II CydB; Cytochrome bd oxidase small subunit CydX
T1 sequence (Q8EC58 1-518): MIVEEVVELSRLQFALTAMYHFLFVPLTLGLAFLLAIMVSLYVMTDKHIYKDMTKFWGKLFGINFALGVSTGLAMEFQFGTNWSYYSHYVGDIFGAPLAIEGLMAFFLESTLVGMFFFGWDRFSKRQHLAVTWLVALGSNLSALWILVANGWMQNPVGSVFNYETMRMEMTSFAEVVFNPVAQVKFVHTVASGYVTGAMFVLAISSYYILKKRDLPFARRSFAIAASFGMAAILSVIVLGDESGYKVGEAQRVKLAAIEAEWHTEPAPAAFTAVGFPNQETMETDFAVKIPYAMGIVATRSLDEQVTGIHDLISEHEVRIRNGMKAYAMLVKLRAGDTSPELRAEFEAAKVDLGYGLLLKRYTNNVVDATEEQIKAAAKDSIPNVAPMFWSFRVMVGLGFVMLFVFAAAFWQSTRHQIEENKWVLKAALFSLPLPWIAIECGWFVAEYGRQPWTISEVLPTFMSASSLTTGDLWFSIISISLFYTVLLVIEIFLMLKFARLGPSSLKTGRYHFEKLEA
T1 sequence (Q8EC59 1-379 partner): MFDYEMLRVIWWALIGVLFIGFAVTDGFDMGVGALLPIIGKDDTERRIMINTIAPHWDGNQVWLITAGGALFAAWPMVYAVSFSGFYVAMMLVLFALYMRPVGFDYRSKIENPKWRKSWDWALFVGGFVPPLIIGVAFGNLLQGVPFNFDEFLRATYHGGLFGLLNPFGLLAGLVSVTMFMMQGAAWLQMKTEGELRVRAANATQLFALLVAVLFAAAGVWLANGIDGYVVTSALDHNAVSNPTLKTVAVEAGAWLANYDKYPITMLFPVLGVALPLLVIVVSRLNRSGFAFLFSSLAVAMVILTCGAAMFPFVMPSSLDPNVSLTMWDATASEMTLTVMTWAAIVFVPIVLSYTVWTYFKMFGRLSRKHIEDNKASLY
T1 sequence (Q8EC60 1-38 partner): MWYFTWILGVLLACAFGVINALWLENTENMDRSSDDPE
The assay can be described thus: oxygen consumption (O2 electrode), membranes of Δcco strain. The format is biochemical. The conditions noted are these: ~70 μmol/L O2; ubiquinol-1 as electron donor; no added ScyA.

Assay [2] concerns the target T2, cbb3-HCO (cytochrome cbb3 oxidase) (Shewanella oneidensis, UniProt Q8EEL5).
T2 construct: gene ccoN; native ccoNOQP complex in membrane preparations of S. oneidensis Δcyd strain (bd oxidase absent), not purified, no tag; with Cbb3-type cytochrome c oxidase subunit II CcoO; Cbb3-type cytochrome c oxidase subunit III CcoP; Cbb3-type cytochrome c oxidase subunit IV CcoQ
The assay can be described thus: oxygen consumption (O2 electrode), membranes of Δcyd strain. The format is biochemical. The conditions noted are these: ~70 μmol/L O2; ascorbate + TMPD as electron donor; no added ScyA.

Molecules are shown by their SMILES.

T2 sequence (Q8EEL5 1-478): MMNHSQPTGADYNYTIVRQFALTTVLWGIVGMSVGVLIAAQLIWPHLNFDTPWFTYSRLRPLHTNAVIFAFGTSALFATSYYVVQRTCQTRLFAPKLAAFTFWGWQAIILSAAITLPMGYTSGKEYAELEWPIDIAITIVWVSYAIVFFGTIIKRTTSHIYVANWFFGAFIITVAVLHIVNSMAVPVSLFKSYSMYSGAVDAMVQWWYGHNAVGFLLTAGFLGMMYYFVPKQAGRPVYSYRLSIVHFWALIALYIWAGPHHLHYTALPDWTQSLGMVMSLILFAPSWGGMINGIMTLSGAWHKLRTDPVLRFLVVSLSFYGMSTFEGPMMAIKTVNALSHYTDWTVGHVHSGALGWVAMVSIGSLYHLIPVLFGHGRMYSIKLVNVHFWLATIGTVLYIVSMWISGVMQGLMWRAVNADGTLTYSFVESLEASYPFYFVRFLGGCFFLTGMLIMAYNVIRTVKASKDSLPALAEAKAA
T2 sequence (Q8EEL6 1-208 partner): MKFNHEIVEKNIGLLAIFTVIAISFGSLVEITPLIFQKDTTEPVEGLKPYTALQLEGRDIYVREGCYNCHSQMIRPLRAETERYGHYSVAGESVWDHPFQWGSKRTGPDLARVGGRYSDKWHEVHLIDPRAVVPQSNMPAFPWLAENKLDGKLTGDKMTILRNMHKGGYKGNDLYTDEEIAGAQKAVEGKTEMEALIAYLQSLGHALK
T2 sequence (Q8EEL8 1-322 partner): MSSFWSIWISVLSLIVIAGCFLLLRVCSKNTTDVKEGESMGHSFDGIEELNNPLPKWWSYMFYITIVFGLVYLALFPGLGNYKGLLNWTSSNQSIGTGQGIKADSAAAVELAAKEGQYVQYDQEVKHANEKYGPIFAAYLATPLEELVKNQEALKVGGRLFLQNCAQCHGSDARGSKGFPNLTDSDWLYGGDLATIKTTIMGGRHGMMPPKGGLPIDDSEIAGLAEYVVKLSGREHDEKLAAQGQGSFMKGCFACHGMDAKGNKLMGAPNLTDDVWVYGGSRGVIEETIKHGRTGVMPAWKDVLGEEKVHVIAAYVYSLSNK
T2 sequence (Q8EEL7 1-58 partner): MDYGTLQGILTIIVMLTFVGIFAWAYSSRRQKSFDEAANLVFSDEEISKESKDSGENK

Regarding `O=NO` [nitrite], the IC50 was approximately 180 nM in assay [1] and approximately 50 nM in assay [2].
